Blank lines part the entries; values can stand above or below the compound they belong to.
Key:
KSHV [1] = assay: Anti-KSHV activity in the presence of herpesvirus TK inhibitor 5'-ET; format: cell-based, Kaposi's sarcoma-associated herpesvirus; conditions: PMA-induced BCBL-1; 1 μM N-MCT or 10 μM CDV with 10, 20 or 50 μM 5'-ET
Experimental: (§1) The cytotoxicity of the compounds was determined simultaneously in uninduced and PMA-induced BCBL-1 cells in microplates, using the XTT assay (Weislow, O, S. et al. 1989 J Natl Cancer Inst 81:577-86).
Exponentially growing BCBL-1 cells or CEM-SS cells (a human T cell line) were washed three times with PBS and cultured in serum free AIM-V w/BSA medium (Invitrogen) at 2×10^5 cells/mL in the absence (unstimulated control) or presence of 20 ng/mL PMA. After 24 hours, unstimulated and PMA-stimulated cells were harvested, washed once with PBS and resuspended in […] radiolabeled compound [^3H]-(N)-MCT, [^3H]-CDV or [^3H]-GCV. Control cultures containing the same concentration of the test compounds but without the radiolabeled formulations were simultaneously set up in an identical manner to assess the cell counts and to evaluate their anti-KSHV activity. In selected experiments, 5′-ET was added at 10˜50 μM to investigate the changes in the anti-KSHV activity and intracellular phosphorylation profiles of the test compounds. The cells were harvested after 24 or 72 hours of incubation.

KSHV [2] = assay: Anti-KSHV activity in PMA-induced BCBL-1 cells (virion-associated and cytoplasmic KSHV DNA by PCR); format: cell-based, Kaposi's sarcoma-associated herpesvirus; conditions: for IC50 / IC90: Human gammaherpesvirus 8, BCBL1, 72 h, PMA-stimulated BCBL-1 cells, KSHV virion production, 3 days; for IC50: read-out: IC50 (μM) (mean ± SD), anti-KSHV activity; for IC90: read-out: IC90 (μM) (mean ± SD), anti-KSHV activity
Experimental: A small fraction (1-3%) of BCBL-1 cells in culture is known to spontaneously undergo lytic cycle and release KSHV virions (Kedes, D. H. et al. 1997 J Clin Invest 99:2082-6; Renne, R. et al. 1996 Nat Med 2:342-6). The antiviral effects of N-MCT and two reference anti-herpetic compounds, CDV and GCV, were determined by the relative reduction in the amounts of cytoplasmic KSHV DNA and newly released KSHV virion-associated DNA in BCBL-1 cells exposed to the test compounds, following lytic induction by phorbol ester, PMA (Renne, R. et al. 1996 Nat Med 2:342-6).
Exponentially growing BCBL-1 cells were washed three times with phosphate-buffered saline (PBS) and resuspended in serum free AIM-V w/BSA medium (Invitrogen, Carlsbad, Calif.) at 2×10^5 cells/mL in the absence (unstimulated control) or presence of 20 ng/mL PMA. After 24 hours, unstimulated and PMA-stimulated BCBL-1 were harvested, washed once with PBS and cultured in serum free AIM-V w/BSA medium at 2×10^5 cells/mL without PMA in the absence or presence of the test compounds at varying concentrations. After 3 days, the cells were counted by the trypan blue dye exclusion method and centrifuged at 1,500 rpm for 5 min. The supernatants were centrifuged at 3,000 rpm for 10 min before subjected to virion-derived KSHV DNA extraction and quantitation, as described below.
Low molecular weight (LMW) DNA was extracted from the pelleted cells according to Hirt's method (Hirt, B. 1967 J Mol Biol 26:365-9) and 0.1 μg of LMW DNA was used for KSHV open reading frame 65 (ORF65) PCR by a primer pair (5′-[…]-3′, SEQ ID NO: 2) and 5′-[…]-3′, SEQ ID NO: 3), generating a 529 bp fragment. The ORF65 PCR reaction mixture, containing 20 mM Tris-HCl (pH 8.4), 50 mM KCl, 2.5 mM MgCl2, 200 μM each dNTP, 0.25 U of Platinum® Taq DNA polymerase (Invitrogen), […] and template DNA, was subjected to 25 cycles of PCR amplification at 94° C. for 60 sec, 60° C. for 60 sec and 72° C. for 60 sec, followed by a final extension at 72° C. for 5 min. In addition, the mitochondrial DNA primer pair (5′-[…]-3′, SEQ ID NO: 4 and 5′-[…]-3′, SEQ ID NO: 5) was used as an internal control for each LMW DNA PCR sample (Yang, Q. et al. 2005 J Virol 79:6122-6133). The amplified products were visualized by electrophoresis on a 1.8% agarose gel.
KSHV virions were pelleted from 300 μL of BCBL-1 culture supernatants by a microcentrifugation at 37,000 g for 2 hours at 4° C. The pelleted virions were resuspended in 150 μL PBS and treated with 20 units of DNase I (Promega, Madison, Wis.) at 37° C. for 30 min to remove cellular DNA from the samples, followed by the incubation with stop solution (20 mM EGTA) at 70° C. for 5 min. Virion-associated KSHV DNA (vDNA) was then extracted by QIAamp DNA extraction kit (QIAGEN, Valencia, Calif.) according to the manufacturer's instructions. One μL of vDNA eluted in 100 μL of elution buffer was subjected to real-time quantitative PCR using a LightCycler® instrument (Roche Applied Science, Indianapolis, Ind.). The 20-μL reaction mixture consisted of the LightCycler FastStart DNA Master SYBR Green I reagents mix (Roche Applied Science), 2.5 mM MgCl2 and 500 nM each of KSHV ORF26 primer pair (5′-[…]-3′, SEQ ID NO: 6 and 5′-[…]-3′, SEQ ID NO: 7). Ten-fold serial dilutions of the plasmid, pKS330Bam (obtained through the AIDS Research and Reference Reagent Program, Division of AIDS, NIAID, NIH, contributed by Drs. Yuan Chang and Patrick Moore), which contained a 330 bp KSHV fragment encoding a portion of the ORF26 gene (Chang, Y. et al. 1994 Science 266:1865-9), were included in each assay as external standards to represent 10 to […] KSHV DNA copies/tube. The number of KSHV vDNA in each supernatant sample was calculated by the LightCycler software version 3.5 (Roche Applied Science), adjusted by the cell count and expressed as copies/10^6 cells.

[3] = tested on: PMA-stimulated BCBL-1 cells; assay: Cytotoxicity by XTT assay in BCBL-1 cells
Experimental: as §1
PMA-stimulated BCBL-1 cells were cultured with increasing concentrations of N-MCT, CDV or GCV and the cell growth was determined by XTT method (Weislow, O, S. et al. 1989 J Natl Cancer Inst 81:577-86) after 72 hours and shown as % no drug control (mean±SD of triplicate wells).

HSV-2 = conditions: cited from earlier work
HSV-1 = conditions: cited from earlier work
BCBL-1 cells = assay: Intracellular phosphorylation in KSHV-infected BCBL-1 cells (HPLC of methanolic extracts)
Experimental: Exponentially growing BCBL-1 cells or CEM-SS cells (a human T cell line) were washed three times with PBS and cultured in serum free AIM-V w/BSA medium (Invitrogen) at 2×10^5 cells/mL in the absence (unstimulated control) or presence of 20 ng/mL PMA. After 24 hours, unstimulated and PMA-stimulated cells were harvested, washed once with PBS and resuspended in serum free AIM-V […] radiolabeled compound [^3H]-(N)-MCT, [^3H]-CDV or [^3H]-GCV. Control cultures containing the same concentration of the test compounds but without the radiolabeled formulations were simultaneously set up in an identical manner to assess the cell counts and to evaluate their anti-KSHV activity. In selected experiments, 5′-ET was added at 10˜50 μM to investigate the changes in the anti-KSHV activity and intracellular phosphorylation profiles of the test compounds. The cells were harvested after 24 or 72 hours of incubation.
Upon harvest, the cells were centrifuged at 1,500 rpm for 10 min and washed once with cold PBS. The cell pellets were resuspended in 250 μL of 60% methanol and heated at 95° C. for 3 min, followed by a microcentrifugation at 12,000 g for 10 min at 4° C. The clarified supernatant fractions were evaporated under nitrogen, redissolved in 250 μL of water and subjected to HPLC separation of the phosphorylated metabolites as described in detail elsewhere (Noy, R. et al. 2002 Mol Cancer Ther 1:585-93; Zalah, L. et al. 2002 Antiviral Res 55:63-75). Fractions containing radiolabeled nucleotides were quantitated based on the known specific activity of the parent tritiated nucleoside (Noy, R. et al. 2002 Mol Cancer Ther 1:585-93; Zalah, L. et al. 2002 Antiviral Res 55:63-75).

[4] = target: T1, recombinant KSHV DNA polymerase (rPOL) and polymerase processivity factor (rPPF) (Human herpesvirus 8 type P, UniProt Q2HRD0); conditions: read-out: IC50 (μM) (mean ± SD), KSHV rPOL/rPPF-mediated DNA synthesis; 37° C., 60 min
T1 sequence (Q2HRD0 1-1012): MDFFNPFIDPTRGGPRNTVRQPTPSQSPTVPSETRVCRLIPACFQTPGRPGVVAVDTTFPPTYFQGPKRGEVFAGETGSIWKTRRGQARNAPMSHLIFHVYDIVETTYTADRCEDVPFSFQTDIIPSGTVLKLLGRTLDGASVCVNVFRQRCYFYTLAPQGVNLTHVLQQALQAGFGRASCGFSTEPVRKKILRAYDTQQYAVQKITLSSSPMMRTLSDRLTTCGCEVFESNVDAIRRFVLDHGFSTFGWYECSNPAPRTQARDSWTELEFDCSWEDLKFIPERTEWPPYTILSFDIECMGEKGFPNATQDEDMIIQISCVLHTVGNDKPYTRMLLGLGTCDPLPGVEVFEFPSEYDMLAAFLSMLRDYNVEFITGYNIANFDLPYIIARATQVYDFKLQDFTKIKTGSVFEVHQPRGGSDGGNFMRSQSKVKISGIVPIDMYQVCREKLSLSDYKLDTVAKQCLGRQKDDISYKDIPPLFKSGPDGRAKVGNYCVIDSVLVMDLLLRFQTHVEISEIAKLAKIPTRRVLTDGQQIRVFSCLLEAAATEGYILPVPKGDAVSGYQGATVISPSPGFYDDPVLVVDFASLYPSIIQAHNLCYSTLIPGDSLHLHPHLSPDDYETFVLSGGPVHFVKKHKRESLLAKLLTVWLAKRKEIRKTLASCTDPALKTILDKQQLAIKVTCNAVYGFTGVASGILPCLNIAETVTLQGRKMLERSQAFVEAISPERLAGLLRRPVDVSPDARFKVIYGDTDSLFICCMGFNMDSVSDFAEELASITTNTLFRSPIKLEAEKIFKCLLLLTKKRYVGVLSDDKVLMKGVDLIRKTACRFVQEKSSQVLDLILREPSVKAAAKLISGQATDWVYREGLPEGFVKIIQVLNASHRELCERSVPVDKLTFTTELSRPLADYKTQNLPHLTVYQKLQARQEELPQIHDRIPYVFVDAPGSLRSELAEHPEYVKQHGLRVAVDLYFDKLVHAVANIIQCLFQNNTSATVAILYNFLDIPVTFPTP
T1 sequence (F5HID2 1-396 partner): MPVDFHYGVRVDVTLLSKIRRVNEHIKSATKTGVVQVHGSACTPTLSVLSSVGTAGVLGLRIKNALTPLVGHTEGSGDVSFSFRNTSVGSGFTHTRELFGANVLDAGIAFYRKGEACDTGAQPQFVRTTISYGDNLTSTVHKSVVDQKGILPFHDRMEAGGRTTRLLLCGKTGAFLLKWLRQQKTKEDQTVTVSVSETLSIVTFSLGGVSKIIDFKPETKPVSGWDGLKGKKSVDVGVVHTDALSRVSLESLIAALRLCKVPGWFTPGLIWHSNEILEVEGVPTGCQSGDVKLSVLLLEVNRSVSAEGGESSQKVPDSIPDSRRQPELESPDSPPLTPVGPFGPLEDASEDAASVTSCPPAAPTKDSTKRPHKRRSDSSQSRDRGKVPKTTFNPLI
Experimental: KSHV rPOL and rPPF were expressed and purified from the recombinant baculovirus-vector infected Sf9 cells (Dorjsuren, D. et al. 2003 Protein Expr Purif 29:42-50). […] The amounts of newly synthesized DNA, which incorporated DIG-dUTP, were determined by the DIG detection kit (Roche Applied Science) according to the manufacturer's instructions.

Compound: Nc1ccn(C[C@@H](CO)OCP(=O)(O)O)c(=O)n1 [CDV, cidofovir]
effect of adding 5'-ET on anti-KSHV activity (KSHV [1]): not affected
IC50 (KSHV [2]): 0.42 ± 0.07 µM
IC90 (KSHV [2]): 4.01 ± 2.05 µM
cytotoxicity at anti-KSHV concentrations ([3]; 0.03 to 10 μM, PMA-induced BCBL-1 cells): without notable cytotoxicity

Compound: Nc1nc(O)c2ncn(COC(CO)CO)c2n1 [GCV, ganciclovir]
IC50 (KSHV [2]): 0.96 ± 0.49 µM
IC90 (KSHV [2]): 7.11 ± 0.28 µM

Compound: Cc1cn([C@@]23C[C@H](O)[C@@H](CO)[C@@H]2C3)c(=O)[nH]c1=O [S-MCT, south-methanocarbathymidine]
antiviral activity against HSV-2 (HSV-2): no antiviral activity
antiviral activity against HSV-1 (HSV-1): no antiviral activity
antiviral activity against KSHV (KSHV [2]; data not shown): no antiviral activity

Compound: cidofovir diphosphate [CDV-DP]
IC50 [4]: 14.7 ± 2.47 µM

Compound: ganciclovir triphosphate [GCV-TP]
IC50 [4]: 24.6 ± 5.6 µM

Now from value to compound, other results behind:

IC50 (KSHV [2]): 0.08 ± 0.03 µM
IC90 (KSHV [2]): 0.68 ± 0.1 µM
Compound: Cc1cn([C@H]2C[C@H](O)[C@]3(CO)C[C@H]23)c(=O)[nH]c1=O [N-MCT, North-methanocarbathymidine]
antiviral activity against HSV-2 (HSV-2): strong antiviral activity
antiviral activity against HSV-1 (HSV-1): strong antiviral activity
effect of adding 5'-ET on anti-KSHV activity (KSHV [1]): marked increases in the level of cytoplasmic KSHV DNA
50% cytotoxic concentration ([3]; human, 72 h): > 200 µM

level of phosphorylated metabolite in the presence of 50 μM 5'-ET (BCBL-1 cells): substantially decreased
Compound: Cc1cn([C@H]2C[C@H](O)[C@]3(COP(=O)(O)OP(=O)(O)O)C[C@H]23)c(=O)[nH]c1=O [N-MCT-DP]

level of phosphorylated metabolite in the presence of 50 μM 5'-ET (BCBL-1 cells): accumulation
Compound: Cc1cn(C2CC(O)C3(COP(=O)(O)O)CC23)c(=O)[nH]c1=O (stereo not shown) [N-MCT-MP]

From patent US20090192077A1, “North-2'deoxy -methanocarbathymidines as antiviral agents for treatment of kaposi's sarcoma-associated herpes virus” (priority 2005, published 2009)
